The source of these data is patent US20110172107A1, “ASSAY FOR IDENTIFYING AGENTS THAT MODULATE EPIGENETIC SILENCING, AND AGENTS IDENTIFIED THEREBY” (FOX CHASE CANCER CENTER, priority 2008, published 2011).

The subject of assay [1] is silent GFP reporter in HeLa TI-C cell clones. Briefly: GFP reactivation in TI-C silent cell clones (FACS). Type of assay: cell-based, human. The conditions noted are these: TSA treatment, FACS after 24 hours, vs DMSO control. From the text:
Cells. HeLa cell populations containing silent GFP genes, as described by Katz et al., 2007, J. Virol. 81:2592-2604, were utilized. TI-C cell clones were isolated by cell sorting as described by Katz et al., 2007, J. Virol. 81:2592-2604.
Analysis of GFP expression. GFP expression was quantitated by FACScan as described previously (Greger et al., 2005, J. Virol. 79:4610-4618; Katz et al., 2007, J. Virol. 81:2592-2604; Poleshko et al., 2008, J. Virol. 82:2313-2323).
Evidence for position-independent roles for HDAC1 and Daxx in retroviral reporter gene silencing. To determine if the integration sites of the retroviral DNA are determinants for the participation of specific host factors that control epigenetic silencing, a series of TI-C cell clones was examined. These clones were derived from a pool of cells in which the average GFP copy number was ca. 1 as measured by quantitative real-time PCR (Katz et al., 2007, J. Virol. 81:2592-2604; Poleshko et al., 2008, J. Virol. 82:2313-2323). […] As with the TI-C cell population, transfection with the HDAC1 siRNA pool phenocopied the TSA treatment (compare FIGS. 4A and B). Based on analyses of these clones, it was concluded that HDAC1 and, in most cases, Daxx are required for the maintenance of silencing at independent loci, but the integration site may modulate the extent of reactivation.

Assay [2] concerns the target heterochromatin protein 1 gamma (HP1γ) (Homo sapiens (Human)) (UniProt Q13185). Briefly: cell-based or functional assay.
Sequence of UniProt Q13185 (Q13185 whole entry): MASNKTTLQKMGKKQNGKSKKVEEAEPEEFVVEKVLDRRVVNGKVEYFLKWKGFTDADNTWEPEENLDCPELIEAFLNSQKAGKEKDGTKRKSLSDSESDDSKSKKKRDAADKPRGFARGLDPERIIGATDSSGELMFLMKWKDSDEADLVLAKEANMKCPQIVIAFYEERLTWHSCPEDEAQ

Turning to `CC(/C=C/C(=O)NO)=C\[C@@H](C)C(=O)c1ccc(N(C)C)cc1` [TSA, trichostatin A], the “GFP reactivation in TI-C cell clones” value in assay [1] is “induced GFP reactivation, but to various degrees”. In assay [2], “dominant negative form of HP1 (dnHP1) (from UniProt P83916 104-185)” displayed a GFP-positive cells at 5 days postinfection (FACS) (% GFP-positive cells) of 24.
